Measured values as given in patent US20120053123A1, “NATRIURETIC POLYPEPTIDES HAVING MUTATIONS WITHIN THEIR DISULFIDE RINGS” (priority 2009, published 2012).

Assays:
[1] = system: vascular smooth muscle cells; test: Proliferation of vascular smooth muscle cells in culture (BrdU); assay type: cell-based; conditions: 10^-5 M to 10^-8 M; for ABC-NP and ABC-NP1 all concentrations about the same effect, FIG. 21
Text: FIG. 21 is a graph plotting levels of proliferation of vascular smooth muscle cells after treatment with 10^−5 M, 10^−6 M, 10^−7 M, or 10^−8 M ANP, BNP, CNP, ABC-NP, or ABC-NP1, measured by assessing bromodeoxyuridine (BrdU) levels.

[2] = after administration to a mammal; cited from earlier work
normal anesthetized dogs = test: Cardiorenal and humoral actions of intravenous bolus in normal anesthetized dogs; assay type: in vivo, dog; conditions: i.v. bolus 25 microgram/Kg; for reduction in right atrial pressure (RAP) / reduction in pulmonary capillary wedge pressure (PCWP): ABC-NP1 compared with ABC-NP; for reduction in right atrial pressure (RAP): FIG. 6; for reduction in pulmonary capillary wedge pressure (PCWP): FIG. 7; for urine flow (UV), diuresis: n=5, FIG. 3; for urinary sodium excretion (UNaV), natriuresis: n=5, FIG. 4; for mean arterial blood pressure (MAP): n=5, FIG. 5
Description: (§1) Cardiorenal and humoral actions of intravenous bolus administration of ABC-NP1 (n=5) and ABC-NP (n=5) at 25 microgram/Kg were evaluated in two separate groups of normal anesthetized dogs. The cGMP response of both peptides also was assessed in HAEC, HCF, and isolated canine glomeruli.

[3] = system: human cardiac fibroblasts (HCF); test: cGMP generation in cultured human cardiac fibroblasts (HCF); assay type: cell-based; conditions: FIG. 8, p<0.05
Text: (§2) Variant NPs having conservative and/or non-conservative substitutions (e.g., with respect to any of SEQ ID NOS:1 to 51), as well as fragments of any of SEQ ID NOS:1 to 51, fragments of variants of any of SEQ ID NOS:1 to 51, and polypeptides comprising any of SEQ ID NOS:1 to 51, variants or fragments of any of SEQ ID NOS:1 to 51, or fragments of variants of any of SEQ ID NOS:1 to 51, can be screened for biological activity using any of a number of assays, including those described herein. For example, the activity of a NP as described herein can be evaluated in vitro by testing its effect on cGMP production in cultured cells (e.g., cultured cardiac fibroblasts, aortic endothelial cells, or glomerular cells, as described in the Example herein). Cells can be exposed to a NP (e.g., 10^−9 to 10^−4 M NP), and samples can be assayed to evaluate the NP effects on cGMP generation. cGMP generation can be detected and measured using, for example, a competitive RIA cGMP kit (Perkin-Elmer, Boston, Mass.).
as §1

[4] = system: human aortic endothelial cells (HAEC); test: cGMP generation in cultured human aortic endothelial cells (HAEC); assay type: cell-based; conditions: FIG. 9, p<0.05
Text: as §2, §1

[5] = system: isolated canine glomeruli; test: cGMP generation in isolated canine glomeruli; assay type: cell-based; conditions: comparison between the two peptides, FIG. 10
Text: A NP as provided herein can function through one or more of the guanylyl cyclase receptors through which the native NPs function. For example, in some embodiments, a NP as provided herein can bind to and function through the NPR-A receptor through which ANP and BNP function. In some cases, a NP as provided herein can function through the NPR-B receptor through which CNP functions. Further, in some cases, a NP as provided herein can bind to and function through more than one guanylyl cyclase receptor, including NPR-A and NPR-B, for example. Methods for evaluating which receptor is involved in function of a particular NP are known in the art. For example, glomeruli, which contain both NPR-A and NPR-B, can be isolated (e.g., from a laboratory animal such as a dog) and incubated with a NP (e.g., a native, chimeric, or mutated NP), and cGMP levels can be measured. Glomeruli can be pretreated with antagonists of NPR-A or NPR-B to determine whether cGMP production stimulated by a NP through one or the other receptor can be attenuated.
as §1

[6] = system: dogs with rapid ventricular pacing-induced overt heart failure with cardiorenal dysfunction; test: Cardiorenal and humoral actions of intravenous infusions in dogs with pacing-induced overt heart failure; assay type: in vivo, dog; conditions: for RAP: all doses (2, 10 and 100 pmol/kg/minute), FIG. 13; for MAP: FIG. 12; for PCWP: FIG. 14; for urinary sodium excretion (UNaV) / urine flow (UV): increasing doses 2, 10, 100 pmol/kg/minute; for glomerular filtration rate (GFR): FIG. 17; for renal blood flow: FIG. 18
Description: The cardiorenal and humoral actions of intravenous infusions of ABC-NP and ABC-NP1 at 2, 10, and 100 pmol/kg/minute were examined in seven dogs with rapid ventricular pacing-induced overt heart failure with cardiorenal dysfunction (240 bpm for 10 days). As shown in the study protocol depicted in FIG. 11, baseline values for MAP, RAP, PCWP, UNaV, UV, GFR, renal blood flow, urinary cGMP excretion, plasma and cGMP were measured, and animals were then infused with 2 pmol/kg/minute ABC-NP or ABC-NP1 for a lead in period of 15 minutes followed by 30 minutes, then infusion with 10 pmol/kg/minute ABC-NP or ABC-NP1 for a lead in period of 15 minutes followed by 30 minutes, and finally infusion with 100 pmol/kg/minute ABC-NP or ABC-NP1 for a lead in period of 15 minutes followed by 30 minutes, and washout for 30 minutes. Pressure measurements were taken at the end of each NP infusion period, and blood and urine samples also were collected for analysis.

[7] = previously shown, cited from earlier work
[8] = HF dogs, highest dose (100 pmol/kg/minute), FIG. 19
[9] = HF dogs, highest dose (100 pmol/kg/minute), FIG. 20
[10] = HF dogs, i.v. infusion, highest dose (100 pmol/kg/minute)
[11] = HF dogs, two highest doses (10 and 100 pmol/kg/minute)

CC[C@H](C)[C@@H]1NC(=O)[C@H](CCCNC(=N)N)NC(=O)[C@H](CC(=O)O)NC(=O)[C@H](CCSC)NC(=O)[C@H](CCCNC(=N)N)NC(=O)CNC(=O)CNC(=O)[C@H](Cc2ccccc2)NC(=O)[C@@H](NC(=O)[C@H](CO)NC(=O)[C@H](CO)NC(=O)[C@H](CCCNC(=N)N)NC(=O)[C@H](CCCNC(=N)N)NC(=O)[C@H](CC(C)C)NC(=O)[C@@H](N)CO)CSSC[C@@H](C(=O)N[C@@H](CC(N)=O)C(=O)N[C@@H](CO)C(=O)N[C@@H](Cc2ccccc2)C(=O)N[C@@H](CCCNC(=N)N)C(=O)N[C@@H](Cc2ccc(O)cc2)C(=O)O)NC(=O)CNC(=O)[C@H](CC(C)C)NC(=O)CNC(=O)[C@H](CO)NC(=O)[C@H](CCC(N)=O)NC(=O)[C@H](C)NC(=O)CNC1=O [ANP, atrial natriuretic peptide]
proliferation of vascular smooth muscle cells (BrdU levels) [1]: decreased as the concentration decreased

B-type natriuretic peptide [BNP]
proliferation of vascular smooth muscle cells (BrdU levels) [1]: decreased as the concentration decreased

C-type natriuretic peptide [CNP]
proliferation of vascular smooth muscle cells (BrdU levels) [1]: decreased as the concentration decreased | half-life [2]: about a minute and a half

RMDRIGLSKGCFGLKLDRIGSMSGLGCKVLRRH [ABC-NP1]
reduction in right atrial pressure (RAP) (normal anesthetized dogs): significantly greater | reduction in pulmonary capillary wedge pressure (PCWP) (normal anesthetized dogs): significantly greater | urine flow (UV), diuresis (normal anesthetized dogs): resulted in diuresis | urinary sodium excretion (UNaV), natriuresis (normal anesthetized dogs): natriuresis | mean arterial blood pressure (MAP) (normal anesthetized dogs): significant decrease | cGMP generation [3]: significantly higher | cGMP generation [4]: significantly higher | cGMP generation [5]: similar | effect on UNaV relative to ABC-NP ([6]; HF dogs, ABC-NP1 vs ABC-NP, FIG. 15): 5- to 6.5 fold | effect on UV relative to ABC-NP ([6]; HF dogs, ABC-NP1 vs ABC-NP, FIG. 16): 1.5- to 2 fold | urinary cGMP excretion [6, 8]: significantly increased | plasma cGMP [6, 9]: significantly increased | effect on urinary cGMP excretion relative to ABC-NP ([6]; HF dogs, highest dose, ABC-NP1 vs ABC-NP, FIG. 19): about a two-fold greater effect | effect on plasma cGMP relative to ABC-NP ([6]; HF dogs, highest dose, ABC-NP1 vs ABC-NP, FIG. 20): about a two-fold greater effect | RAP ([6]; HF dogs, i.v. infusion): significantly reduced | MAP [6, 10]: significantly reduced | PCWP [6, 10]: significantly reduced | urinary sodium excretion (UNaV) ([6]; HF dogs, FIG. 15): increasing effects | urine flow (UV) ([6]; HF dogs, FIG. 16): increasing effects | glomerular filtration rate (GFR) [6, 11]: significant increases | renal blood flow [6, 11]: significant increases | proliferation of vascular smooth muscle cells (BrdU levels) [1]: reduced proliferation | renal excretory actions ([7]; result of N- and C-terminal alterations): potent renal excretory actions | cardiac actions ([7]; similar to CNP): cardiac unloading actions | hypotensive effects ([7]; similar to CNP): mild hypotensive effects

RMDRIGLSKGCFGLKLDRIREASGLGCKVLRRH [ABC-NP, ANP residues 11-15, mutated CNP in which GSM15-17 were changed to REA, and six C-terminal amino acids of BNP]
reduction in right atrial pressure (RAP) (normal anesthetized dogs): reduction | reduction in pulmonary capillary wedge pressure (PCWP) (normal anesthetized dogs): reduction | urine flow (UV), diuresis (normal anesthetized dogs): resulted in diuresis | urinary sodium excretion (UNaV), natriuresis (normal anesthetized dogs): natriuresis | mean arterial blood pressure (MAP) (normal anesthetized dogs): no change | cGMP generation [3]: minimal | cGMP generation [4]: minimal | cGMP generation [5]: similar | glomerular filtration rate (GFR) ([6]; HF dogs, 2, 10, 100 pmol/kg/minute, significant increase only at highest dose): significance was not achieved with ABC-NP until the highest dose was used | renal blood flow ([6]; HF dogs, 2, 10 and 100 pmol/kg/minute): no effect | urinary cGMP excretion [6, 8]: significantly increased | plasma cGMP [6, 9]: significantly increased | MAP ([6]; HF dogs, i.v. infusion 2, 10 and 100 pmol/kg/minute): no effect | RAP ([6]; HF dogs, i.v. infusion): increased | PCWP ([6]; HF dogs, i.v. infusion, higher doses (10 and 100 pmol/kg/minute)): did not affect | PCWP ([6]; HF dogs, i.v. infusion, lowest dose (2 pmol/kg/minute), vs baseline): reduced PCWP as compared to baseline | urinary sodium excretion (UNaV) ([6]; HF dogs, FIG. 15): increasing effects | urine flow (UV) ([6]; HF dogs, FIG. 16): increasing effects | proliferation of vascular smooth muscle cells (BrdU levels) [1]: reduced proliferation
